# Measured values as given in ChEMBL document CHEMBL3885861, “Open TG-GATES”.
# Organism: Rattus norvegicus
# Test: Open TG-GATES - Regimen: Single
# Type: toxicity, organism-based, Sprague-Dawley
# Design: regimen Single, gender Male, age 6 weeks
# Details: in vivo, po, route gavage; for Hb / Ht / Lym / MCH / MCHC / MCV / Mono / Neu / PT / Plat / RBC / Ret / WBC / APTT / Bas / Eos / Fbg: tissue Blood; for KIDNEY_L / KIDNEY_R / KIDNEY_TOTAL: tissue Kidney; for LIVER: tissue Liver; for A/G / ALP / ALT / AST / BUN / CRE / Ca / Cl / DBIL / GLC / IP / K / LDH / Na / PL / RALB / TBIL / TC / TG / TP / gamma-GTP: tissue Plasma
# [1] = 15 mg/kg, 6 h, dose level Middle
# [2] = 15 mg/kg, 9 h, dose level Middle
# [3] = 15 mg/kg, 24 h, dose level Middle
smiles,measurement,setting,value
COc1ccc2c(c1)c(CC(=O)O)c(C)n2C(=O)c1ccc(Cl)cc1 [INDOMETHACIN],Hb,[1],14 g/dL
same,Ht,[1],38.4%
same,Lym,[1],71.4%
same,MCH,[1],22.9 pg
same,MCHC,[1],36.6%
same,MCV,[1],62.7 fL
same,Mono,[1],3.4%
same,Neu,[1],22.8%
same,PT,[1],12.2 s
same,Plat,[1],116.9 x10_4/uL
same,RBC,[1],613.2 x10_4/ul
same,Ret,[1],7.8%
same,WBC,[1],112.3 x10_2/uL
same,KIDNEY_L,[1],1 g
same,KIDNEY_R,[1],1 g
same,KIDNEY_TOTAL,[1],2 g
same,LIVER,[1],9.3 g
same,A/G,[1],1.6
same,ALP,[1],853.6 IU/L
same,ALT,[1],39.6 IU/L
same,AST,[1],70 IU/L
same,BUN,[1],12.8 mg/dL
same,CRE,[1],0.4 mg/dL
same,Ca,[1],10.5 mg/dL
same,Cl,[1],103.4 meq/L
same,DBIL,[1],0.074 mg/dL
same,GLC,[1],200.2 mg/dL
same,IP,[1],9.5 mg/dL
same,K,[1],4.1 meq/L
same,LDH,[1],204.8 IU/L
same,Na,[1],140.8 meq/L
same,PL,[1],135.6 mg/dL
same,RALB,[1],3.2 g/dL
same,TBIL,[1],0.1 mg/dL
same,TC,[1],74.4 mg/dL
same,TG,[1],66.6 mg/dL
same,TP,[1],5.3 g/dL
same,gamma-GTP,[1],1.2 IU/L
same,TERMINAL_BW,[2],220.7 g
same,APTT,[2],18 s
same,Bas,[2],0%
same,Eos,[2],0.4%
same,Fbg,[2],217.2 mg/dL
same,Hb,[2],13.6 g/dL
same,Ht,[2],37.1%
same,Lym,[2],69.4%
same,MCH,[2],22.4 pg
same,MCHC,[2],36.6%
same,MCV,[2],61.1 fL
same,Mono,[2],3.4%
same,Neu,[2],24.8%
same,PT,[2],12.5 s
same,Plat,[2],119.6 x10_4/uL
same,RBC,[2],607 x10_4/ul
same,Ret,[2],7.9%
same,WBC,[2],101.8 x10_2/uL
same,KIDNEY_L,[2],0.9 g
same,KIDNEY_R,[2],0.9 g
same,KIDNEY_TOTAL,[2],1.9 g
same,LIVER,[2],8.7 g
same,A/G,[2],1.6
same,ALP,[2],719.4 IU/L
same,ALT,[2],29.2 IU/L
same,AST,[2],63.8 IU/L
same,BUN,[2],13 mg/dL
same,CRE,[2],0.3 mg/dL
same,Ca,[2],10.4 mg/dL
same,Cl,[2],104.2 meq/L
same,DBIL,[2],0.07 mg/dL
same,GLC,[2],186.8 mg/dL
same,IP,[2],10 mg/dL
same,K,[2],4 meq/L
same,LDH,[2],202.2 IU/L
same,Na,[2],141.4 meq/L
same,PL,[2],125.4 mg/dL
same,RALB,[2],3.2 g/dL
same,TBIL,[2],0.1 mg/dL
same,TC,[2],69.6 mg/dL
same,TG,[2],36.8 mg/dL
same,TP,[2],5.2 g/dL
same,gamma-GTP,[2],1 IU/L
same,TERMINAL_BW,[3],227.1 g
same,APTT,[3],19.7 s
same,Bas,[3],0.2%
same,Eos,[3],0.8%
same,Fbg,[3],294.2 mg/dL
same,Hb,[3],10.8 g/dL
same,Ht,[3],31%
same,Lym,[3],57.8%
same,MCH,[3],21.3 pg
same,MCHC,[3],34.9%
same,MCV,[3],61.2 fL
same,Mono,[3],2.4%
same,Neu,[3],37.8%
same,PT,[3],12.2 s
same,Plat,[3],94.5 x10_4/uL
same,RBC,[3],509.2 x10_4/ul
same,Ret,[3],7.9%
same,WBC,[3],93.5 x10_2/uL
same,KIDNEY_L,[3],1 g
same,KIDNEY_R,[3],1 g
same,KIDNEY_TOTAL,[3],2.1 g
same,LIVER,[3],9.5 g
same,A/G,[3],1.3
same,ALP,[3],547.6 IU/L
same,ALT,[3],28 IU/L
same,AST,[3],57 IU/L
same,BUN,[3],14.4 mg/dL
same,CRE,[3],0.4 mg/dL
same,Ca,[3],9.8 mg/dL
same,Cl,[3],105.4 meq/L
same,DBIL,[3],0.06 mg/dL
same,GLC,[3],173.2 mg/dL
same,IP,[3],9.6 mg/dL
same,K,[3],4.2 meq/L
same,LDH,[3],180.2 IU/L
same,Na,[3],141.2 meq/L
same,PL,[3],127 mg/dL
same,RALB,[3],2.5 g/dL
same,TBIL,[3],0.1 mg/dL
same,TC,[3],72.8 mg/dL
same,TG,[3],80.8 mg/dL
same,TP,[3],4.3 g/dL
same,gamma-GTP,[3],1.4 IU/L
same,TERMINAL_BW,"50 mg/kg, 3 h, dose level High",226 g
same,APTT,"50 mg/kg, 3 h, dose level High",21.4 s
same,Bas,"50 mg/kg, 3 h, dose level High",0.2%
same,Eos,"50 mg/kg, 3 h, dose level High",1%
same,Fbg,"50 mg/kg, 3 h, dose level High",216.6 mg/dL
same,Hb,"50 mg/kg, 3 h, dose level High",13.8 g/dL
same,Ht,"50 mg/kg, 3 h, dose level High",37.8%
same,Lym,"50 mg/kg, 3 h, dose level High",73.6%
same,MCH,"50 mg/kg, 3 h, dose level High",22.2 pg
same,MCHC,"50 mg/kg, 3 h, dose level High",36.4%
same,MCV,"50 mg/kg, 3 h, dose level High",60.9 fL
same,Mono,"50 mg/kg, 3 h, dose level High",2.4%
same,Neu,"50 mg/kg, 3 h, dose level High",22%
same,PT,"50 mg/kg, 3 h, dose level High",12 s
same,Plat,"50 mg/kg, 3 h, dose level High",119.2 x10_4/uL
same,RBC,"50 mg/kg, 3 h, dose level High",621.6 x10_4/ul
same,Ret,"50 mg/kg, 3 h, dose level High",8.1%
same,WBC,"50 mg/kg, 3 h, dose level High",114.1 x10_2/uL
same,KIDNEY_L,"50 mg/kg, 3 h, dose level High",0.9 g
same,KIDNEY_R,"50 mg/kg, 3 h, dose level High",0.9 g
same,KIDNEY_TOTAL,"50 mg/kg, 3 h, dose level High",1.9 g
same,LIVER,"50 mg/kg, 3 h, dose level High",9.8 g
same,A/G,"50 mg/kg, 3 h, dose level High",1.6
same,ALP,"50 mg/kg, 3 h, dose level High",971 IU/L
